Experimental data taken from PMC9415646, “Improving Aqueous Solubility and In Vitro Pharmacokinetic Properties of the 3-Nitroimidazo[1,2-a]pyridine Antileishmanial Pharmacophore” (Pharmaceuticals, 2022).

What was measured:
[1] = tested on: L. infantum axenic amastigotes; test: Antileishmanial activity on L. infantum axenic amastigotes (luciferase assay); format: cell-based; conditions: Leishmania infantum, 48 h, read-out: EC50 L. infantum Axenic Ama.
Experimental: L. infantum promastigotes were harvested in logarithmic phase of growth by centrifugation at 900× g for 10 min. The supernatant was removed carefully and was replaced by the same volume of RPMI 1640 complete medium at pH 5.4 and incubated for 24 h at 24 °C. The acidified promastigotes were then incubated for 24 h at 37 °C in a ventilated flask to transform them into axenic amastigotes. The amastigote stage was checked both by electron microscopy (short flagellum with small bulbous tip extending beyond a spherical cell body) and RT-PCR to confirm the overexpression of ATG8 and amastin genes in amastigotes, relative to promastigotes. The effects of the tested compounds on the growth of L. infantum axenic amastigotes were assessed as follows. L. infantum amastigotes were incubated at a density of 2 × 10^6 parasites/mL in sterile 96-well plates with various concentrations of compounds dissolved in DMSO (final concentration less than 0.5% v/v), in duplicate. Appropriate controls treated with DMSO, amphotericin B, miltefosine, fexinidazole and fexinidazole sulfone were added to each set of experiments. After a 48 h incubation period at 37 °C, each plate-well was then microscopically examined to detect any precipitate formation.
• Luciferase activity and determination of EC50 were performed as above.

[2] = Redox potential of the nitro group by cyclic voltammetry; format: physicochemical; conditions: cyclic voltammetry in DMSO, corrected versus NHE
Experimental: Voltammetric measurements were carried out with a potentiostat Autolab PGSTAT100 (ECO Chemie, Utrecht, The Netherlands) controlled by GPES 4.09 software (ECO Chemie, Utrecht, The Netherlands). Experiments were performed at room temperature in a homemade airtight three–electrode cell connected to a vacuum/argon line. The reference electrode consisted of a saturated calomel electrode (SCE) separated from the solution by a bridge compartment. The counter electrode was a platinum wire of 1 cm^2 apparent surface. The working electrode was a GC microdisk (1.0 mm in diameter–Bio-logic SAS). The supporting electrolyte (nBu4N)[PF6] (Fluka, 99% puriss electrochemical grade) and the solvent DMSO (Sigma-Aldrich puriss p.a. dried <0.02% water) were used as received and simply degassed under argon. The solutions used during electrochemical analyses were typically 10^−3 M in compound and 0.1 M in supporting electrolyte. Before each measurement, the solutions were degassed by bubbling Ar, and the working electrode was polished with a polishing machine (Presi P230, Eybens, France). Under the experimental conditions adopted in this work, the half-wave potential (E1/2) of the ferrocene Fc+/Fc couple in DMSO was E1/2 = 0.45 V vs. SCE. Experimental peak potentials were measured versus SCE and converted to NHE by adding 0.241 V.

[3] = tested on: L. donovani promastigotes; test: Antileishmanial activity against L. donovani promastigotes (MTT assay); format: cell-based; conditions: Leishmania donovani; promastigotes, 72 h, MTT; read-out: EC50 L. donovani Pro.
Experimental: The Leishmania species used in this study were L. donovani (MHOM/IN/00/DEVI) purchased from CNR Leishmania (Montpellier, France). Leishmania promastigote forms were grown in Schneider’s Drosophila medium (Life Technologies, Saint-Aubin, France) supplemented with 100 U/mL penicillin, 100 µg/mL streptomycin, 2 mM L-glutamine and 20% FCS (Life Technologies, Saint-Aubin, France) at 27 °C. The in vitro evaluation of the tested compound’s antileishmanial activity on promastigote forms was carried out by MTT assay according to the Mosmann protocol with some modifications. Briefly, promastigotes in log-phase were incubated at an average density of 10^6 parasites/mL in sterile 96-well plates with various concentrations of compound dissolved in DMSO (final concentration less than 0.5% v/v), in duplicate. Appropriate controls treated with DMSO, Miltefosine, Amphotericin B, Fexinidazole, and Fexinidazole sulfone (reference drugs purchased from Sigma-Aldrich, Saint-Louis, Missouri, USA) were added to each set of experiments. After a 72 h incubation period at 27 °C, parasitic metabolic activity was determined. Each plate-well was then microscope-analyzed to detect any precipitate formation. 20 µL of MTT (3-(4,5-dimethylthiazol-2-yl)-2,5-diphenyltetrazolium bromide) (Sigma-Aldrich, Saint-Louis, Missouri, USA) solution (5 mg/mL in PBS) were added to each well and incubated for 4 h at 27 °C. The enzyme reaction was then stopped by addition of 100 µL of 50% isopropanol–10% sodium dodecyl sulfate. Plates were shaken vigorously at 300 rpm for 10 min. The absorbance was measured at 570 nm in a BIO-TEK Elx808 (Biotek, Colmar, France) absorbance microplate reader. […] EC50 values were calculated by non-linear regression analysis processed dose-response curves, using TableCurve 2D V5.0 software (Systat Software Inc. (Palo Alto, CA, USA)). EC50 values represent the mean value calculated from at least three separate experiments.

[4] = tested on: L. infantum promastigotes; test: Antileishmanial activity against L. infantum promastigotes (luciferase assay); format: cell-based; conditions: Leishmania infantum, 72 h, read-out: EC50 L. infantum Pro.
Experimental: L. infantum promastigotes (MHOM/MA/67/ITMAP-263, CNR Leishmania, Montpellier, France, expressing luciferase activity) were used in the following tests. The effects of the tested compounds on the growth of L. infantum promastigotes were assessed by Luciferase Assay. Briefly, promastigotes in log-phase in RPMI 1640 medium supplemented with 10% fetal calf serum (FCS), 2 mM L-glutamine and antibiotics (100U/mL penicillin, 100 µg/mL streptomycin and 50µg/mL geneticin), were incubated at an average density of 10^6 parasites/mL (100 µL/well) in sterile 96-well plates with various concentrations of compounds dissolved in DMSO (final concentration less than 0.5% v/v), in duplicate. Appropriate controls (100 µL/well) treated by DMSO and reference drugs (purchased for the majority from Sigma Aldrich) were added to each set of experiments. After a 72 h incubation period at 24 °C, each plate-well was then microscope-examined for detecting possible precipitate formation. To estimate the luciferase activities of promastigotes, 80 µL of each well are transferred in white 96-well plates, Steady Glow reagent (Promega) was added according to manufacter’s instructions, and plates were incubated for 2 min. The luminescence was measured in a FLUOstar Omega (BMG Labtech, Champigny-sur-Marne, France). […] EC50 were calculated by non-linear regression analysis processed on dose–response curves, using TableCurve 2D V5 software.

SMILES | EC50 [1] | E0 (redox potential of the nitro group) [2] | EC50 [3] | EC50 [4]
COc1ccc(S(=O)(=O)Cc2nc3c(Sc4ccc(Cl)cc4)cc(Cl)cn3c2[N+](=O)[O-])cc1 [Compound 3f, 6-Chloro-8-[(4-Chlorophenyl)thio]-2-[(4-Methoxyphenylsulfonyl)methyl]-3-Nitroimidazo[1,2-a]pyridine] | 0.5 ± 0.1 µM | −0.66 V | 1.2 ± 0.1 µM | 1.2 ± 0.1 µM
CSc1ccc(OCc2ncc([N+](=O)[O-])n2C)cc1 [Fexinidazole, reference compound] | 7.8 ± 2.3 µM | −0.83 V | 1.2 ± 0.2 µM | 1 ± 0.1 µM
COc1ccc(S(=O)(=O)Cc2nc3c(Br)cc(Cl)cn3c2[N+](=O)[O-])cc1 [Compound 2g, 8-Bromo-6-Chloro-2-[(4-Methoxyphenylsulfonyl)methyl]-3-Nitroimidazo[1,2-a]pyridine] | 2.3 ± 0.3 µM | −0.64 V | 2.8 ± 0.9 µM | 9.3 ± 1.2 µM
O=[N+]([O-])c1c(CS(=O)(=O)c2ccc(O)cc2)nc2c(Sc3ccc(Cl)cc3)cc(Cl)cn12 [Compound 3a, 4-{[(6-Chloro-8-[(4-Chlorophenyl)thio]-3-Nitroimidazo[1,2-a]pyridin-2-yl)methyl]sulfonyl}phenol] | 1.4 ± 0.3 µM |  | 0.8 ± 0.2 µM | 5.6 ± 0.9 µM
O=[N+]([O-])c1c(CS(=O)(=O)c2ccc(Cl)cc2)nc2c(Sc3ccc(Cl)cc3)cc(Cl)cn12 [Compound 3b, 6-Chloro-2-[(4-Chlorophenylsulfonyl)methyl]-8-[(4-Chlorophenyl)thio]-3-Nitroimidazo[1,2-a]pyridine] | 1 ± 0.1 µM | −0.68 V | 1.4 ± 0.1 µM | 1.2 ± 0.1 µM
O=[N+]([O-])c1c(CS(=O)(=O)c2ccccc2)nc2c(Br)cc(Cl)cn12 [Hit A, 8-Bromo-6-chloro-3-nitro-2-(phenylsulfonylmethyl)imidazo[1,2-a]pyridine, reference compound] | 16.4 ± 1.3 µM | −0.65 V | 5.3 ± 1.1 µM | 8.7 ± 0.7 µM
O=[N+]([O-])c1c(CS(=O)(=O)CCC(F)(F)F)nc2c(Sc3ccc(Cl)cc3)cc(Cl)cn12 [Compound 3i, 6-Chloro-8-[(4-Chlorophenyl)thio]-3-Nitro-2-[(3,3,3-Trifluoropropylsulfonyl)methyl]imidazo[1,2-a]pyridine] | 0.8 ± 0.3 µM | −0.64 V | 1.4 ± 0.2 µM | 1.4 ± 0.1 µM
O=[N+]([O-])c1c(CS(=O)(=O)CCC(F)(F)F)nc2c(-c3ccncc3)cc(Cl)cn12 [Compound 7, 6-Chloro-3-Nitro-8-(Pyridin-4-yl)-2-[(3,3,3-Trifluoropropylsulfonyl)methyl]imidazo[1,2-a]pyridine] | 14 ± 0.9 µM | −0.61 V | 3.1 ± 0.6 µM | 14 ± 0.4 µM
O=[N+]([O-])c1c(CS(=O)(=O)c2ccc(C(F)(F)F)cc2)nc2c(Sc3ccc(Cl)cc3)cc(Cl)cn12 [Compound 3d, 6-Chloro-8-[(4-Chlorophenyl)thio]-3-Nitro-2-[(4-Trifluoromethylphenylsulfonyl)methyl]imidazo[1,2-a]pyridine] | 0.8 ± 0.1 µM | −0.56 V | 1.8 ± 0.2 µM | 3.3 ± 0.4 µM
O=[N+]([O-])c1c(CS(=O)(=O)c2ccc(F)cc2)nc2c(Sc3ccc(Cl)cc3)cc(Cl)cn12 [Compound 3c, 6-Chloro-8-[(4-Chlorophenyl)thio]-2-[(4-Fluorophenylsulfonyl)methyl]-3-Nitroimidazo[1,2-a]pyridine] | 0.2 ± 0.1 µM | −0.61 V | 0.9 ± 0.1 µM | 1.5 ± 0.1 µM
O=[N+]([O-])c1c(CS(=O)(=O)c2ccccc2)nc2c(Sc3ccc(Cl)cc3)cc(Cl)cn12 [Hit B, reference compound] | 1.7 ± 0.3 µM | −0.63 V | 1 ± 0.3 µM | 0.6 ± 0.1 µM
O=[N+]([O-])c1c(CS(=O)(=O)C2CC2)nc2c(Sc3ccc(Cl)cc3)cc(Cl)cn12 [Compound 3h, 6-Chloro-8-[(4-Chlorophenyl)thio]-2-[(cyclopropylsulfonyl)methyl]-3-Nitroimidazo[1,2-a]pyridine] | 2.4 ± 0.1 µM | −0.65 V | 2.2 ± 0.3 µM | 2.2 ± 0.3 µM
O=[N+]([O-])c1c(CS(=O)(=O)c2ccc(OC(F)(F)F)cc2)nc2c(Sc3ccc(Cl)cc3)cc(Cl)cn12 [Compound 3e, 6-Chloro-8-[(4-Chlorophenyl)thio]-3-Nitro-2-[(4-Trifluoromethoxyphenylsulfonyl)methyl]imidazo[1,2-a]pyridine] | 0.8 ± 0.2 µM | −0.66 V | 2.6 ± 0.2 µM | 3.1 ± 0.2 µM
O=[N+]([O-])c1c(CS(=O)(=O)c2ccc(OC(F)(F)F)cc2)nc2c(Br)cc(Cl)cn12 [Compound 2f, 8-Bromo-6-Chloro-3-Nitro-2-[(4-Trifluoromethoxyphenylsulfonyl)methyl]imidazo[1,2-a] pyridine] | 2.7 ± 0.4 µM | −0.62 V | 4.4 ± 0.1 µM | 6.7 ± 0.8 µM
O=[N+]([O-])c1c(CS(=O)(=O)CCC(F)(F)F)nc2c(S(=O)(=O)c3ccc(Cl)cc3)cc(Cl)cn12 [Compound 6b, 6-Chloro-8-[(4-Chlorophenyl)sulfonyl]-3-Nitro-2-[(3,3,3-Trifluoropropylsulfonyl)methyl] imidazo[1,2-a]pyridine] | 2.3 ± 0.3 µM |  | 1.3 ± 0.2 µM | 13.7 ± 0.9 µM
